Measured values from patent US20210299079A1, “MONOMETHYL FUMARATE-CARRIER CONJUGATES AND METHODS OF THEIR USE” (Flagship Pioneering Innovations V, Inc., priority 2018, published 2021).
Counter-ions that a name gives are not always drawn.

Experiments:
[1] = Stability of conjugates in Simulated Gastric Fluid (SGF); assay type: in vitro ADME; details: SGF pH 1.6 with pepsin, 37° C., 1 μM compound
Procedure: Assay 1. Stability of conjugates in Simulated Gastric Fluid (SGF). This assay was used to assess the stability of a conjugate in a stomach.
Medium was prepared by dissolving 2 g of sodium chloride in 0.6 L in ultrapure water (MilliQ®, Millipore Sigma, Darmstadt, Germany). The pH was adjusted to 1.6 with 1N hydrochloric acid, and the volume was then adjusted to 1 L with purified water.
60 mg FaSSIF powder (Biorelevant™, London, UK) were dissolved in 500 mL buffer (above). Pepsin was added (0.1 mg/mL) (Millipore Sigma, Darmstadt, Germany), and the solution was stirred. The resulting SGF media were used fresh for each experiment.
(§1) Test compounds were dissolved in DMSO stock to 1 mM. An aliquot of the DMSO stock solution was removed and diluted in the SGF Media in 15 mL falcon tubes to generate a total compound concentration of 1 μM. A 1 mL aliquot was immediately removed and diluted once with 1 volume of acetonitrile for TO timepoint. The mixture was sealed and mixed at 37° C. in an incubator. Aliquots (1 mL) were removed at regular intervals and immediately quenched by the addition of 1 volume of acetonitrile. The resulting samples were analyzed by LC/MS to determine degradation rates in SGF.

[2] = Stability of conjugates in Simulated Intestinal Fluid (SIF); assay type: in vitro ADME; details: SIF pH 6.7 with pancreatin, 37° C., 1 μM compound
Procedure: Assay 2. Stability of conjugates in Simulated Intestinal Fluid (SIF). This assay was used to assess the stability of a conjugate in a small intestine.
Phosphate buffer was prepared by dissolving 0.42 g of sodium hydroxide pellets and 3.95 g of monobasic sodium phosphate monohydrate and 6.19 g of sodium chloride in ultrapure water (MilliQ®, Millipore Sigma, Darmstadt, Germany). The pH was adjusted to 6.7 using aq. HCl and aq. NaOH, as necessary, and the solution was diluted with ultrapure water to produce 1 L of the pH 6.7 buffer.
112 mg FaSSIF powder (Biorelevant™, London, UK) was dissolved in 50 mL of the pH 6.7 buffer. 2 to 3 mL of the resulting solution were then added to 500 mg pancreatin (Millipore Sigma, Darmstadt, Germany). The resulting mixture was agitated by finger tapping the vessel containing the mixture until milky suspension formed. At this time, the remainder of the 50 mL FaSSiF/pH 6.7 buffer solution was added. The resulting suspension was flipped upside down 10 times to produce SIF, which was used fresh.
as §1, with “SIF media” for “SGF Media”, “produce” for “generate”, “mixture with a tested” for “total”, “agitated” for “mixed”, “rates” for “rates in SGF.”

naïve CD4+ T cells = assay: Human Regulatory T Cell Differentiation Assay; assay type: cell-based; details: 6 days; for Cell viability % DMSO: viability dye; for activity at 3000 µM: IL-2, 3 mM; for activity at 100 µM: IL-2, 100 μM
Procedure: Peripheral blood mononuclear cells (PBMCs) from whole blood donated by health volunteers were separated by Ficoll-Paque gradient centrifugation and naïve CD4^+ T cells were subsequently isolated using magnet beads (EasySep™ Human Naïve CD4^+ T Cell Isolation Kit, Cambridge, Mass.). For regulatory T cell (Treg) differentiation assay, naïve CD4^+ T cells were cultured (1-10×10^4 cells) in CTS OpTmizer medium for 6 days and stimulated with 5 ng/ml TGF-β, 100 U/ml IL-2, and ImmunoCult™ Human […] T Cell Activator; Stemcell #10990) with/without our Compounds. Cell viability was determined using a viability dye (eBioscience Fixable Viability Dye eFluor 780: ThermoFisher 65-0865-14) at 1:500 dilution. The cells were gated for Treg, defined as Live, CD11c^−, CD14^−, CD19^−, CD8^−, CD4^+, CD3^+, CD25^+, FOXP3^+. Percent (%) Tregs were calculated as percentage of CD4^+, CD25^+, FOXP3^+ cells over total CD4^+ T cells. Statistical analysis was performed with GraphPad Prism Software Using One-Way ANOVA.

[3] = Homo sapiens, 144 h, TGF-β, read-out: Treg induction % DMSO

Row | SMILES | Assay 1 (SGF) (% Remaining @ 1 hour) [1] | Assay 2 (SIF) (% @ Remaining 4 hours) [2] | further results
1 | CCC(=O)O[C@H]1[C@H](OC(=O)/C=C/C(=O)OC)OC[C@@H](OC(=O)CC)[C@H]1OC(=O)CC [Compound 6, Methyl ((2S,3R,4R,5R)-3,4,5-tris(propionyloxy)tetrahydro-2H-pyran-2-yl) fumarate] | C (C: >75% of the tested compound remaining) | A (A: <25% of the tested compound remaining) | 
2 | CCC(=O)O[C@H]1[C@H](OC(=O)CC)[C@@H](OC(=O)/C=C/C(=O)OC)O[C@@H](C)[C@H]1OC(=O)CC [Compound 21, Methyl ((2R,3S,4R,5R,6S)-6-methyl-3,4,5-tris(propionyloxy)tetrahydro-2H-pyran-2-yl) fumarate] | C (C: >75% of the tested compound remaining) | B (B: 25-75% of the tested compound remaining) | 
3 | CCC(=O)O[C@@H]1O[C@H](COC(=O)/C=C/C(=O)OC)[C@@H](OC(=O)CC)[C@H](OC(=O)CC)[C@H]1OC(=O)CC [Compound 22, Methyl (((2R,3R,4S,5R,6S)-3,4,5,6-tetrakis(propionyloxy)tetrahydro-2H-pyran-2-yl)methyl) fumarate] | C (C: >75% of the tested compound remaining) | A (A: <25% of the tested compound remaining) | 
4 | CCC(=O)O[C@@H]1[C@@H](OC(=O)CC)[C@@H](OC(=O)/C=C/C(=O)OC)O[C@H](C(=O)O)[C@H]1OC(=O)CC [Compound 26, (2S,3S,4S,5R,6R)-6-(((E)-4-methoxy-4-oxobut-2-enoyl)oxy)-3,4,5-tris(propionyloxy)tetrahydro-2H-pyran-2-carboxylic Acid] | C (C: >75% of the tested compound remaining) | A (A: <25% of the tested compound remaining) | 
5 | CCCC(=O)O[C@H]1[C@@H](OC(=O)CCC)[C@@H](CO)O[C@@H](OC(=O)/C=C/C(=O)OC)[C@@H]1OC(=O)CCC [Compound 44, 1-methyl (2S,3R,4S,5S,6R)-3,4,5-tris(butanoyloxy)-6-(hydroxymethyl)oxan-2-yl (2E)-but-2-enedioate] | C (C: >75% of the tested compound remaining) | A (A: <25% of the tested compound remaining) | 
6 | CCCC(=O)O[C@H]1[C@@H](OC(=O)CCC)[C@@H](CO)O[C@H](OC(=O)/C=C/C(=O)OC)[C@@H]1OC(=O)CCC [Compound 45, 1-methyl (2R,3R,4S,5S,6R)-3,4,5-tris(butanoyloxy)-6-(hydroxymethyl)oxan-2-yl (2E)-but-2-enedioate] | C (C: >75% of the tested compound remaining) | A (A: <25% of the tested compound remaining) | 
7 | CCC(=O)OC[C@H]1O[C@@H](OC(=O)/C=C/C(=O)OC)[C@H](OC(=O)CC)[C@@H](OC(=O)CC)[C@H]1O [Compound 47, (2S,3R,4S,5S,6R)-5-hydroxy-3,4-bis(propanoyloxy)-6-[(propanoyloxy)methyl]oxan-2-yl 1-methyl (2E)-but-2-enedioate] | C (C: >75% of the tested compound remaining) | A (A: <25% of the tested compound remaining) | 
8 | CCC(=O)O[C@H]1[C@@H](OC(=O)CC)[C@@H](CO)O[C@H](OC(=O)/C=C/C(=O)OC)[C@@H]1OC(=O)CC [Compound 48, (2R,3R,4S,5S,6R)-6-(hydroxymethyl)-3,4,5-tris(propanoyloxy)oxan-2-yl 1-methyl (2E)-but-2-enedioate] | C (C: >75% of the tested compound remaining) | A (A: <25% of the tested compound remaining) | 
9 | CCC(=O)OC[C@H]1O[C@H](OC(=O)/C=C/C(=O)OC)[C@H](OC(=O)CC)[C@@H](OC(=O)CC)[C@H]1O [Compound 49, (2R,3R,4S,5S,6R)-5-hydroxy-3,4-bis(propanoyloxy)-6-[(propanoyloxy)methyl]oxan-2-yl 1-methyl (2E)-but-2-enedioate] | C (C: >75% of the tested compound remaining) | A (A: <25% of the tested compound remaining) | 
10 | CCC(=O)O[C@H]1O[C@H](COC(=O)/C=C/C(=O)OC)[C@@H](OC(=O)CC)[C@H](OC(=O)CC)[C@H]1OC(=O)CC [Compound 50, 1-methyl 4-[(2R,3R,4S,5R,6R)-3,4,5,6-tetrakis(propanoyloxy)oxan-2-yl]methyl (2E)-but-2-enedioate] | C (C: >75% of the tested compound remaining) | A (A: <25% of the tested compound remaining) | 
11 | CCC(=O)OC[C@H]1O[C@@H](OC(=O)CC)[C@H](OC(=O)CC)[C@@H](OC(=O)CC)[C@H]1OC(=O)/C=C/C(=O)OC [Compound 51, 1-methyl (2R,3S,4S,5R,6S)-4,5,6-tris(propanoyloxy)-2-[(propanoyloxy)methyl]oxan-3-yl (2E)-but-2-enedioate] | C (C: >75% of the tested compound remaining) | A (A: <25% of the tested compound remaining) | 
12 | CCC(=O)OC[C@H]1O[C@H](OC(=O)CC)[C@H](OC(=O)CC)[C@@H](OC(=O)CC)[C@H]1OC(=O)/C=C/C(=O)OC [Compound 52, 1-methyl (2R,3S,4S,5R,6R)-4,5,6-tris(propanoyloxy)-2-[(propanoyloxy)methyl]oxan-3-yl (2E)-but-2-enedioate] | C (C: >75% of the tested compound remaining) | A (A: <25% of the tested compound remaining) | 
13 | CC(=O)O [acetic acid] |  |  | Cell viability % DMSO (naïve CD4+ T cells; 1 mM): = (90% > <110%: =); Cell viability % DMSO (naïve CD4+ T cells; 3 mM): = (90% > <110%: =); activity at 1000 µM (naïve CD4+ T cells; Homo sapiens, 144 h, TGF-β, IL-2, 1 mM, read-out: Treg induction % DMSO): 110 to 130%; activity at 3000 µM (naïve CD4+ T cells; [3]): > 130%
14 | CCCC(=O)O [butyric Acid] |  |  | Cell viability % DMSO (naïve CD4+ T cells; 3 mM): − (<90%: −); activity at 3000 µM (naïve CD4+ T cells; [3]): < 90%
15 | CC[C@H]1[C@@H](O)[C@@H]2[C@H](CC[C@]3(C)[C@@H]([C@H](C)CCC(=O)O)CC[C@@H]23)[C@@]2(C)CC[C@@H](O)C[C@@H]12 [obeticholic acid, reference compound] |  |  | Cell viability % DMSO (naïve CD4+ T cells; 100 μM): = (90% > <110%: =); activity at 100 µM (naïve CD4+ T cells; [3]): 110 to 130%
16 | CCC(=O)O [propionic acid] |  |  | Cell viability % DMSO (naïve CD4+ T cells; 3 mM): = (90% > <110%: =); activity at 3000 µM (naïve CD4+ T cells; [3]): > 130%
17 | CN(CCOc1ccc(CC2SC(=O)NC2=O)cc1)c1ccccn1 (stereo not drawn) [rosiglitazone, reference compound] |  |  | Cell viability % DMSO (naïve CD4+ T cells; 10 μM): = (90% > <110%: =); Cell viability % DMSO (naïve CD4+ T cells; 100 μM): − (<90%: −); activity at 10 µM (naïve CD4+ T cells; Homo sapiens, 144 h, TGF-β, IL-2, 10 μM, read-out: Treg induction % DMSO): 90 to 110%; activity at 100 µM (naïve CD4+ T cells; [3]): 90 to 110%
18 | CC(O)CC(=O)[O-].[Na+] (stereo not drawn) [sodium β-hydroxybutyrate] |  |  | Cell viability % DMSO (naïve CD4+ T cells; 2 mM): = (90% > <110%: =); Cell viability % DMSO (naïve CD4+ T cells; 20 mM): − (<90%: −); activity at 2000 µM (naïve CD4+ T cells; Homo sapiens, 144 h, TGF-β, IL-2, 2 mM, read-out: Treg induction % DMSO): 110 to 130%; activity at 20000 µM (naïve CD4+ T cells; Homo sapiens, 144 h, TGF-β, IL-2, 20 mM, read-out: Treg induction % DMSO): 90 to 110%
